Test results as given in US9096832B2, “Differentiation of human embryonic stem cells” (LifeScan, Inc., priority 2007, dated 2015).

Tested on: H9 embryonic stem cells
Test: Microarray analysis of definitive endoderm stage cells on […] or MEFs +/- Wnt-3a (Table VI)
Format: cell-based, human
Details: log format
[1] = DE treatment in low serum on MATRIGEL
[2] = DE treatment in low serum on MEFS

Protocol: Controls for each group included cells plated on [sequence]—coated dishes and cultured in MEF-conditioned medium or cells plated on MEFs and cultured in ES medium. All groups contained three biological replicates and each biological replicate was repeated on two separate gene chips.
Sample preparation, hybridization, and image analysis were performed according to the Affymetrix Human Genome U133 Plus 2.0 Array. Following normalization and a log transformation, data analysis was performed using OmniViz® software (MA) and [sequence] […] Significant differences in gene expression between the samples were evaluated using analysis of variance and an F-test with adjusted P-value (Benjamini and Hochberg correction) of less-than or equal to 0.05. Only genes with a present call in at least one group were included in the analysis.

## Activin A: activin A (a member of the TGFβ superfamily), R&D Systems; 'w/o wnt' in Table VII = 100 ng/ml Activin A without Wnt3a
[1]
  mean normalized intensity: DKFZP566K1924 protein: 2.882
  mean normalized intensity: ESTs, Moderately similar to ALU2_HUMAN ALU SUBFAMILY SB SEQUENCE CONTAMINATION WARNING ENTRY (H. sapiens): 4.241
  mean normalized intensity: H. sapiens mRNA for B-HLH DNA binding protein.: 5.43
  mean normalized intensity: Homo sapiens BCL2-interacting killer (apoptosis-inducing) (BIK), mRNA.: 4.3
  mean normalized intensity: Homo sapiens Charot-Leyden crystal protein (CLC), mRNA.: 3.301
  mean normalized intensity: Homo sapiens HES-related repressor protein 1 HERP1 mRNA, complete cds.: 2.806
  mean normalized intensity: Homo sapiens HSPC156 protein (HSPC156), mRNA.: 0.7862
  mean normalized intensity: Homo sapiens KIAA0469 gene product (KIAA0469), mRNA.: 4.031
  mean normalized intensity: Homo sapiens PNAS-123 mRNA, complete cds: 1.597
  mean normalized intensity: Homo sapiens Wilms tumor 1 (WT1), transcript variant D, mRNA.: 2.405
  mean normalized intensity: Homo sapiens cDNA FLJ11398 fis, clone HEMBA1000637.: 2.5268
  mean normalized intensity: Homo sapiens cDNA: FLJ22547 fis, clone HSI00356: 4.294
  mean normalized intensity: Homo sapiens cadherin 6, type 2, K-cadherin (fetal kidney) (CDH6), mRNA.: 0.8248
  mean normalized intensity: Homo sapiens chorionic somatomammotropin hormone 2 (CSH2), transcript variant 1, mRNA.: 1.124
  mean normalized intensity: Homo sapiens chorionic somatomammotropin hormone 2 (CSH2), transcript variant 4, mRNA.: 0.8122
  mean normalized intensity: Homo sapiens galanin receptor 1 (GALR1), mRNA.: 2.507
  mean normalized intensity: Homo sapiens growth hormone 2 (GH2), transcript variant 2, mRNA.: 0.9226
  mean normalized intensity: Homo sapiens hypothetical protein FLJ20075 (FLJ20075), mRNA.: −0.3592
  mean normalized intensity: Homo sapiens mRNA for SCCA2b, complete cds.: 3.329
  mean normalized intensity: Homo sapiens mRNA; cDNA DKFZp586P1124 (from clone DKFZp586P1124): 0.4856
  mean normalized intensity: Homo sapiens methyl-CpG binding protein MBD2 (MBD2) mRNA, complete cds.: 0.4906
  mean normalized intensity: Homo sapiens tachykinin, precursor 1 (TAC1), transcript variant beta, mRNA.: 2.773
  mean normalized intensity: Homo sapiens testis expressed sequence 14 (TEX14), mRNA.: 3.512
  mean normalized intensity: Homo sapiens, Similar to LIM homeobox protein 8, clone IMAGE: 4839343, mRNA.: −0.06288
  mean normalized intensity: Homo sapiens, Similar to cadherin 6, type 2, K-cadherin (fetal kidney), clone MGC: 1470, mRNA, complete cds.: 2.547
  mean normalized intensity: Homo sapiens, Similar to hypothetical protein FLJ10058, clone MGC: 34305 IMAGE: 5167647, mRNA, complete cds.: 1.698
  mean normalized intensity: Homo sapiens, Similar to hypothetical protein FLJ32001, clone MGC: 39559 IMAGE: 4828136, mRNA, complete cds.: 0.5207
  mean normalized intensity: Homo sapiens, clone IMAGE: 4067166, mRNA: 0.1959
  mean normalized intensity: Homo sapiens, clone IMAGE: 4828836, mRNA.: 0.9729
  mean normalized intensity: Homo sapiens, serine (or cysteine) proteinase inhibitor, clade B (ovalbumin), member 3, clone MGC: 12244, mRNA, complete cds.: 1.969
  mean normalized intensity: Human mRNA upregulated during camptothecin-induced apoptosis of U937 cells.: 0.4945
  mean normalized intensity: Human platelet-derived growth factor alpha-receptor (PDGFRA) mRNA, exons 13-16: 2.445
  mean normalized intensity: KIAA1151 protein: 0.6425
  mean normalized intensity: caldesmon 1: 7.092
  mean normalized intensity: nuclear receptor subfamily 1, group I, member 3: 1.779
DE treatment in low serum on MATRIGEL, gene line r2006
  mean normalized intensity: ESTs: 1.5857
DE treatment in low serum on MATRIGEL, gene line r2025
  mean normalized intensity: ESTs: 1.531
DE treatment in low serum on MATRIGEL, gene line r2032
  mean normalized intensity: ESTs: 0.1336
DE treatment in low serum on MATRIGEL, gene line r2033
  mean normalized intensity: paternally expressed 3: 2.876
DE treatment in low serum on MATRIGEL, gene line r2038
  mean normalized intensity: ESTs: 3.262
DE treatment in low serum on MATRIGEL, gene line r2093
  mean normalized intensity: paternally expressed 3: 2.874
DE treatment in low serum on MATRIGEL, gene line r2134
  mean normalized intensity: ESTs: −1.3795
DE treatment in low serum on MATRIGEL, gene line r2148
  mean normalized intensity: ESTs: 4.454
[2]
  mean normalized intensity: DKFZP566K1924 protein: 1.391
  mean normalized intensity: ESTs, Moderately similar to ALU2_HUMAN ALU SUBFAMILY SB SEQUENCE CONTAMINATION WARNING ENTRY (H. sapiens): 3.874
  mean normalized intensity: H. sapiens mRNA for B-HLH DNA binding protein.: 3.451
  mean normalized intensity: Homo sapiens BCL2-interacting killer (apoptosis-inducing) (BIK), mRNA.: 3.562
  mean normalized intensity: Homo sapiens Charot-Leyden crystal protein (CLC), mRNA.: 2.1096
  mean normalized intensity: Homo sapiens HES-related repressor protein 1 HERP1 mRNA, complete cds.: 2.406
  mean normalized intensity: Homo sapiens HSPC156 protein (HSPC156), mRNA.: 1.296
  mean normalized intensity: Homo sapiens KIAA0469 gene product (KIAA0469), mRNA.: 2.565
  mean normalized intensity: Homo sapiens PNAS-123 mRNA, complete cds: 1.847
  mean normalized intensity: Homo sapiens Wilms tumor 1 (WT1), transcript variant D, mRNA.: −2.435
  mean normalized intensity: Homo sapiens cDNA FLJ11398 fis, clone HEMBA1000637.: 1.849
  mean normalized intensity: Homo sapiens cDNA: FLJ22547 fis, clone HSI00356: 2.095
  mean normalized intensity: Homo sapiens cadherin 6, type 2, K-cadherin (fetal kidney) (CDH6), mRNA.: −0.8763
  mean normalized intensity: Homo sapiens chorionic somatomammotropin hormone 2 (CSH2), transcript variant 1, mRNA.: 2.616
  mean normalized intensity: Homo sapiens chorionic somatomammotropin hormone 2 (CSH2), transcript variant 4, mRNA.: 2.218
  mean normalized intensity: Homo sapiens galanin receptor 1 (GALR1), mRNA.: −0.338
  mean normalized intensity: Homo sapiens growth hormone 2 (GH2), transcript variant 2, mRNA.: 1.4679
  mean normalized intensity: Homo sapiens hypothetical protein FLJ20075 (FLJ20075), mRNA.: −0.06528
  mean normalized intensity: Homo sapiens mRNA for SCCA2b, complete cds.: 0.568
  mean normalized intensity: Homo sapiens mRNA; cDNA DKFZp586P1124 (from clone DKFZp586P1124): −3.094
  mean normalized intensity: Homo sapiens methyl-CpG binding protein MBD2 (MBD2) mRNA, complete cds.: −1.702
  mean normalized intensity: Homo sapiens tachykinin, precursor 1 (TAC1), transcript variant beta, mRNA.: 1.483
  mean normalized intensity: Homo sapiens testis expressed sequence 14 (TEX14), mRNA.: −1.3824
  mean normalized intensity: Homo sapiens, Similar to LIM homeobox protein 8, clone IMAGE: 4839343, mRNA.: −1.11
  mean normalized intensity: Homo sapiens, Similar to cadherin 6, type 2, K-cadherin (fetal kidney), clone MGC: 1470, mRNA, complete cds.: 2.134
  mean normalized intensity: Homo sapiens, Similar to hypothetical protein FLJ10058, clone MGC: 34305 IMAGE: 5167647, mRNA, complete cds.: 0.2156
  mean normalized intensity: Homo sapiens, Similar to hypothetical protein FLJ32001, clone MGC: 39559 IMAGE: 4828136, mRNA, complete cds.: 1.269
  mean normalized intensity: Homo sapiens, clone IMAGE: 4067166, mRNA: 0.277
  mean normalized intensity: Homo sapiens, clone IMAGE: 4828836, mRNA.: −1.484
  mean normalized intensity: Homo sapiens, serine (or cysteine) proteinase inhibitor, clade B (ovalbumin), member 3, clone MGC: 12244, mRNA, complete cds.: −1.566
  mean normalized intensity: Human mRNA upregulated during camptothecin-induced apoptosis of U937 cells.: −0.1892
  mean normalized intensity: Human platelet-derived growth factor alpha-receptor (PDGFRA) mRNA, exons 13-16: 2.905
  mean normalized intensity: KIAA1151 protein: 1.009
  mean normalized intensity: caldesmon 1: 5.634
  mean normalized intensity: nuclear receptor subfamily 1, group I, member 3: −0.1968
DE treatment in low serum on MEFS, gene line r2006
  mean normalized intensity: ESTs: −1.3
DE treatment in low serum on MEFS, gene line r2025
  mean normalized intensity: ESTs: 1.373
DE treatment in low serum on MEFS, gene line r2032
  mean normalized intensity: ESTs: −1.566
DE treatment in low serum on MEFS, gene line r2033
  mean normalized intensity: paternally expressed 3: −0.0118
DE treatment in low serum on MEFS, gene line r2038
  mean normalized intensity: ESTs: 1.5682
DE treatment in low serum on MEFS, gene line r2093
  mean normalized intensity: paternally expressed 3: −3.492
